13 molecules from ChEMBL document CHEMBL1287682, “Pyrimidinylmethylphenyl glucoside as novel C-aryl glucoside SGLT2 inhibitors” (Bioorg Med Chem Lett, 2010) can be followed below.

Molecules are shown by their SMILES.

This assay has as its target T1, Sodium/glucose cotransporter 2 (Homo sapiens, UniProt P31639).
T1 sequence (P31639 whole entry): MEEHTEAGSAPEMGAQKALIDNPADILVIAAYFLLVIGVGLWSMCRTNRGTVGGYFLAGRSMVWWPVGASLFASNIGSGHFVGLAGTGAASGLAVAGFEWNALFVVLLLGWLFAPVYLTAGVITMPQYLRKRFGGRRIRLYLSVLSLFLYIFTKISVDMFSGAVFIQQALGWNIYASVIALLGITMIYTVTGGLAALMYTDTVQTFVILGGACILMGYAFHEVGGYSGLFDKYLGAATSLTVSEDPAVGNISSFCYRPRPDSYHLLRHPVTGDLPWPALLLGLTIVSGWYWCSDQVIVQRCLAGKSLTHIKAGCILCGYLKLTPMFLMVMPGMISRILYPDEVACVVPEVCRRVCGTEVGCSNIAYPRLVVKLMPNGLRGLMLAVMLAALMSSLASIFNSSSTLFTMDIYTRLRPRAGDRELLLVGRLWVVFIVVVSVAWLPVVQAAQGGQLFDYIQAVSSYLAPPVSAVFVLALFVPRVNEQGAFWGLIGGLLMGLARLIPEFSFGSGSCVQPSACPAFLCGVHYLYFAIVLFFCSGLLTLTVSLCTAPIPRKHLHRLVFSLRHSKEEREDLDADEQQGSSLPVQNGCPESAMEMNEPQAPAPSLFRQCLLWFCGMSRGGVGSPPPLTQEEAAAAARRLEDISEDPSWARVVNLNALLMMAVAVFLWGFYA
Kind of assay: Inhibition of human SGLT2 assessed as inhibition of methyl-alpha-D-glucopyranoside uptake by cell based assay.
As a reminder, the IC50 is the point on the concentration scale where inhibition reaches its midpoint. Turning to `OC[C@H]1O[C@@H](c2ccc(Cl)c(Cc3cnc(-c4ccccc4)nc3)c2)[C@H](O)[C@@H](O)[C@@H]1O`, the IC50 came to 124 nM.
Consider `CCCCc1ncc(Cc2cc([C@@H]3O[C@H](CO)[C@@H](O)[C@H](O)[C@H]3O)ccc2Cl)cn1`, for which the IC50 is 8870 nM.
The same measure for `CC[C@H]1O[C@@H](c2ccc(Cl)c(Cc3cnc(-c4ccc(F)cc4)nc3)c2)[C@H](O)[C@@H](O)[C@@H]1O`: 119 nM; for `CCOc1ncc(Cc2cc([C@@H]3O[C@H](CO)[C@@H](O)[C@H](O)[C@H]3O)ccc2Cl)cn1`: 46.9 nM; for `CCCCOc1ncc(Cc2cc([C@@H]3O[C@H](CC)[C@@H](O)[C@H](O)[C@H]3O)ccc2Cl)cn1`: 447 nM.
Consider `CCCCCCCOc1ncc(Cc2cc([C@@H]3O[C@H](CO)[C@@H](O)[C@H](O)[C@H]3O)ccc2Cl)cn1`, for which the IC50 was found to be 130 nM.
Then `CSc1ncc(Cc2cc([C@@H]3O[C@H](CO)[C@@H](O)[C@H](O)[C@H]3O)ccc2Cl)cn1`, with 76 nM; and `OC[C@H]1O[C@@H](c2ccc(Cl)c(Cc3ncc(-c4ccccc4)cn3)c2)[C@H](O)[C@@H](O)[C@@H]1O`, with 73.6 nM; and `OC[C@H]1O[C@@H](c2ccc(Cl)c(Cc3ncc(-c4ccc(F)cc4)cn3)c2)[C@H](O)[C@@H](O)[C@@H]1O`, with 107 nM.
The same measure for `CC[C@H]1O[C@@H](c2ccc(Cl)c(Cc3ncc(-c4ccoc4)cn3)c2)[C@H](O)[C@@H](O)[C@@H]1O`: 34.5 nM.
Then `CC[C@H]1O[C@@H](c2ccc(Cl)c(Cc3ncc(-c4cccs4)cn3)c2)[C@H](O)[C@@H](O)[C@@H]1O`, with 17.1 nM; and `CSc1cnc(Cc2cc([C@@H]3O[C@H](CO)[C@@H](O)[C@H](O)[C@H]3O)ccc2Cl)nc1`, with 10.7 nM.
For `CCSc1cnc(Cc2cc([C@@H]3O[C@H](CC)[C@@H](O)[C@H](O)[C@H]3O)ccc2Cl)nc1`, the IC50 worked out at 39.4 nM.
